Results published in PubChem BioAssay AID1508591.
“And” between values parts separate entries of the source, which are not always exact repeats. Equal entries are not always repeated.

details: rat; liver microsomes; pH 7.4; 15.0 min; 1.0 µM

SMILES	half-life
O=C(Nc1ccc(S(=O)(=O)Nc2nccs2)cc1)c1ccncc1	> 30 min
CCOC(=O)CCNc1cc(N2CCc3ccccc3CC2)nc(-c2ccccn2)n1	1.5 min
Cc1ccnc(NC(=S)N2CCN(c3cc(C(F)(F)F)cc(C(F)(F)F)c3)CC2)c1	> 30 min
CCN(c1ccccc1)S(=O)(=O)c1c(C)nc2scc(C)n2c1=O	1.7 min
COCCNc1ncnc2onc(-c3ccc(F)cc3)c12	> 30 min
COc1cccc(-c2csc(N3CCC(C(N)=O)CC3)n2)c1	1.33 min
O=C(NCCN1CCOCC1)C1CC(=O)N(c2n[nH]c3cc(Br)ccc23)C1 (centres undefined)	> 30 min
CN1CCC(N(Cc2cccs2)c2ccccc2)CC1	1.37 min
CC[C@H](CO)Nc1nc(NCc2ccccc2)c2ncn(C(C)C)c2n1	5.51 min
O=C(Nc1nc(-c2ccccn2)cs1)c1cccc(-n2cnnn2)c1	> 30 min
CCOc1ccc(/C=C/c2nc3ccccc3n2S(=O)(=O)c2cccc(Cl)c2)cc1	> 30 min
COc1ccc(S(=O)(=O)N2CCOCC2)cc1NC(=O)c1cccc(-n2cccc2)c1	3.37 min
COc1ccc(-n2nc(C3CCN([S+](=O)([O-])c4c(C)noc4C)CC3)[nH]c2=O)cc1	22.9 min
Oc1c(C(Nc2nccs2)c2ccc(C(F)(F)F)cc2)ccc2cccnc12 (centres undefined)	3.54 min
CN(C)c1ccc(CN2CCNc3cc(Nc4ccccc4)ncc3C2)cc1	2.01 min
CN1Cc2c(ccc3c2OCO3)[C@@H]2[C@H]1c1cc3c(cc1C[C@@H]2O)OCO3	2.12 min
CCCS(=O)(=O)c1nc(NC2CC2)cc(-c2ccc3c(ccn3C3CC(C)(C)NC(C)(C)C3)c2)n1	> 30 min
COc1cccc(N2CCN(c3ncc4c(n3)CCN(Cc3ccc(Br)cc3)C4)CC2)c1	18.2 min
Oc1cccc2nc3ccccc3nc12	8.9 min
O=C(Nc1cncc(Cc2ccccc2)c1)c1ccc(-c2cccc([N+](=O)[O-])c2)o1	2.4 min
CN1CCN(C(=O)Cc2c[nH]c3ncc(-c4ccccc4Oc4ccccc4)cc23)CC1	1.72 min
CC1Cc2cc(S(=O)(=O)NCc3ccc(N(C)C)cc3)ccc2N1C(=O)C1CCC1 (centres undefined)	1.73 min
COc1ccc(-n2nc(C3CCN(C(=O)C4CC4)CC3)[nH]c2=O)cc1	> 30 min
Cc1ccc(NC(=O)CSc2ncc(S(=O)(=O)c3ccc(C(C)C)cc3)c(=O)[nH]2)cc1C	4.98 min
CC(=O)c1c(C)[nH]c(C(=O)Nc2cccc([S+](=O)([O-])N3CCC(F)(F)CC3)c2)c1C	2.4 min

SMILES	half-life
CCN1C(=O)c2ccccc2[S@](=O)c2ccc(C(=O)N[C@H](C)c3ccc(Br)cc3)cc21	7.7 min
Cc1cccc(-c2noc([C@@H]3Cc4nc[nH]c4CN3)n2)c1	> 30 min
COc1cccc(O)c1CNc1ccc(S(=O)(=O)Nc2nccs2)cc1	8.9 min
NC(=O)c1cccc(-c2cc(Nc3ccc(OC(F)(F)F)cc3)ncn2)c1	> 30 min
O=C1c2ccccc2C2=Nc3ccccc3SC(c3ccc(Cl)cc3)C12 (centres undefined)	2.96 min
CC(C)c1ccccc1-c1ncc(F)c(NCC2CCN(c3cccnc3)CC2)n1	3 min
NC(=O)C1CCN(c2ncc(-c3ccc4c(c3)OC(F)(F)O4)s2)CC1	9.4 min
Cc1ccc(S(=O)(=O)Nc2cccnc2C(=O)Nc2nc(-c3ccccc3)cs2)cc1	4.2 min
CC(Cc1ccc(O)cc1)NCC(O)c1cc(O)cc(O)c1 (centres undefined)	> 30 min
COc1ccccc1CNc1ccc(N2CCCCC2)cc1	2.19 min
COc1cc(N2CCC(N3CCN(C)CC3)CC2)ccc1Nc1ncc(Cl)c(Nc2ccccc2P(C)(C)=O)n1	> 30 min
Cc1cnc(-c2ccccc2C(C)C)nc1NCC1CCN(c2cccnc2)CC1	3.9 min
CCc1ccc(NC(=O)c2[nH]c(C)c(C(C)=O)c2C)cc1S(=O)(=O)Nc1cccc(C#N)c1	6.1 min
COc1cc(Cl)c(C)cc1NC(=O)CSc1ncc(S(=O)(=O)c2ccc(C(C)(C)C)cc2)c(=O)[nH]1	6.38 min
CC[C@H]1NC(=O)[C@@H](NC(=O)c2ncccc2O)[C@@H](C)OC(=O)[C@H](c2ccccc2)NC(=O)[C@@H]2CC(=O)CCN2C(=O)[C@H](Cc2ccccc2)N(C)C(=O)[C@@H]2CCCN2C1=O	> 30 min
CC(=O)c1c(C)[nH]c(C(=O)Nc2cccc(S(=O)(=O)N3CCCCC3)c2)c1C	1.7 min
Nc1nc(N)c2c(OCC3CCN(Cc4ccccc4F)CC3)cccc2n1	> 30 min
O=C(NC1CCCc2c1[nH]c1c(Cl)cccc21)c1ccc2c(c1)OCO2 (centres undefined)	12.8 min
CN(C)c1cccc(-c2cnc(N3CCC(c4ncc[nH]4)CC3)s2)c1	4.63 min
CCOc1cc2ncc(C#N)c(Nc3ccc(OCc4ccccn4)c(Cl)c3)c2cc1NC(=O)C=CCN(C)C	> 30 min
CC(C)(C)OC(=O)N[C@@H](Cc1ccc(O[S+](=O)([O-])c2cccc3cnccc23)cc1)C(=O)N1CCN(Cc2ccccc2)CC1	1.6 min
COc1ccc(-n2nc(C3CCCN(C(=O)Nc4ccccc4)C3)[nH]c2=O)cc1 (centres undefined)	> 30 min
NC(=O)C1CCN(c2nc(-c3cccc([N+](=O)[O-])c3)cs2)CC1	2.3 min
CCOC(=O)c1cc(C)sc1NC(=O)c1ccc(Cl)s1	5.49 min
CN(C(=O)OC(C)(C)C)[C@@H](Cc1ccc(O[S+](=O)([O-])c2cccc3cnccc23)cc1)C(=O)N1CCN(C(=O)OCc2ccccc2)CC1	1.74 min

SMILES	half-life
CC(=O)N1CCN(c2ccc(OCc3nn(C)c(C)c3-c3cccc4c(CCCOc5cccc6ccccc56)c(C(=O)O)n(Cc5cccnc5)c34)cc2)CC1	15 min
Cc1ccnc(NC(=S)N2CCC(c3cccc(C(F)(F)F)c3)CC2)c1	24 min
O=C(Nc1ccc2c(N3CCOCC3)ncnc2c1)c1cccc(Br)c1	10.1 min
C[C@]1(CO)CN(c2cc(C(=O)Nc3ccc4c(c3)-c3c(c(C(N)=O)nn3-c3ccc(F)cc3)CC4)c(Cl)cn2)C[C@@]1(C)CO	23.2 min
O=C(Nc1nc(-c2ccccc2)cs1)c1ccncc1NS(=O)(=O)c1ccccc1Cl	15 min
Cn1nc(-c2ccccc2F)c2cc(C(=O)Nc3cc(F)ccc3F)sc21	26.2 min
O=C(Cc1ccccc1)Nc1ccc(S(=O)(=O)Nc2nccs2)cc1	> 30 min
CN(C)c1cccc(-c2cnc(N3CCC(C(N)=O)CC3)nc2)c1	16.8 min
Nc1nccc2c1ncn2[C@@H]1C=C(CO)[C@@H](O)[C@H]1O	> 30 min
Cc1cnc(SCc2ccccn2)nc1C1CCCN(C(=O)c2scc3c2CCCC3)C1 (centres undefined)	1.01 min
CC(C)c1ccccc1-c1ncc(F)c(NC(C)(C)c2ccc(-n3ccnn3)cc2)n1	1.6 min
C[C@@H]1CN(CC(=O)N2CC(C)(C)c3ncc(Cc4ccc(F)cc4)cc32)[C@@H](CN2CCOC[C@H]2C)CN1	7.57 min
CCc1cccc(-n2nnc(-c3nsc(NC(=O)c4cccc(OC)c4)n3)c2C)c1	12.8 min
CCN1C(=O)c2ccccc2[S@](=O)c2ccc(C(=O)N[C@H](C)c3ccc4ccccc4c3)cc21	5.2 min
O=C(Nc1ccc(S(=O)(=O)Nc2nccs2)cc1)c1cc(-c2ccccc2)nc2ccccc12	> 30 min
O=S(=O)(Nc1ccc(-c2ccccc2)cc1)c1ccc(NCc2cccc(Cl)c2O)cc1	5.6 min
COc1ccc(CCNc2ncnc3onc(C)c23)c(OC)c1	2.23 min
Nc1nc(Nc2ccc(S(N)(=O)=O)cc2)nn1C(=O)c1c(F)cccc1F	> 30 min
O=C(N/N=C/c1ccc(Sc2ccccn2)o1)c1ccncc1	> 30 min
COc1cc(-c2csc(N3CCC(C(N)=O)CC3)n2)cc(OC)c1OC	> 30 min
CC(=O)Nc1cccc(Nc2nc3ccccc3n3c(C)nnc23)c1	> 30 min
CC/C=C\C/C=C\C/C=C\C/C=C\C/C=C\C/C=C\CCC(=O)NCCO	4.94 min
N#C/C(=C\c1ccc(Sc2ccc(Cl)cc2)o1)c1nc2ccccc2[nH]1	7.56 min
CNc1nc2c(s1)C(c1ccccc1F)CC(=O)N2 (centres undefined)	3.51 min
NC(=O)C1CCN(c2nc(-c3cccc(C(F)(F)F)c3)cs2)CC1	1.99 min

SMILES	half-life
Cc1ccc(-c2c(CN3CCN(c4cccc(C(F)(F)F)c4)CC3)csc2C)cc1	18.5 min
O=C(c1ccc2c(c1)ncn2-c1cccc(Cl)c1)N1CCCCC1	5.83 min
Cc1cccc(-c2[nH]c(C(C)(C)C)nc2-c2ccc3nccnc3c2)n1	> 30 min
O=C(Nc1ccccc1-c1cn2c(CN3CCNCC3)csc2n1)c1cnc2ccccc2n1	> 30 min
COc1ccc(NC(=O)c2[nH]c(C)c(C(C)=O)c2C)cc1S(=O)(=O)N1CCCCC1	6 min
CC(C)(C)c1ccc(OCc2nn3c(-c4ccncc4)nnc3s2)cc1	19.6 min
Cc1[nH]c2ccccc2c1CN1CCN(c2ccccn2)CC1	1.7 min
O=C(O)c1ccccc1C(=O)Nc1ccc(-c2ccccc2)cc1	> 30 min
COc1ccc2c(c1)CN(C(=O)CCN1CCC(Cc3ccccc3)CC1)CCS2	2.27 min
COc1cc2c(cc1-c1c(C)noc1C)ncc1[nH]c(=O)n([C@H](C)c3ccccn3)c12	> 30 min
O=[S+]([O-])(Nc1nccs1)c1ccc(NCc2cc(Cl)cc(Br)c2O)cc1	12 min
COc1cc2c(cc1Oc1cccc(N(C)C)c1)NC(=O)C21CCN(c2cnccn2)CC1	1.77 min
CN(Cc1ccccc1)C(=O)C1CCN(Cc2cccc3ccccc23)CC1	2.4 min
NC(=O)C1CCN(c2nc(-c3ccccc3F)cs2)CC1	3.04 min
COc1cc2c(C(=O)N3CCN(c4cccc(C(F)(F)F)c4)CC3)cn(CC(C)C)c(=O)c2cc1OC	3.15 min
Fc1ccc(CNc2nc(-c3ccccc3C(F)(F)F)nc3ccccc23)cc1	19.8 min
CCCOc1ccc2nc(NC(=O)OC)[nH]c2c1	> 30 min
O=C(Nc1ccc([S+](=O)([O-])Nc2nccs2)cc1)c1ccccn1	2.4 min
COc1ccc(C2Nc3ccccc3C(=O)N2Cc2ccco2)cc1COc1ccc(NC(C)=O)cc1 (centres undefined)	1.35 min and 2.57 min
C=Cc1ccc(Cn2c(C(=O)O)c(CNC3CCCCC3)c3ccc(OC)cc32)cc1	7.15 min
O=C(CCCCn1c(=O)[nH]c2ccsc2c1=O)N1CCN(c2cccc(Cl)c2)CC1	8.06 min
Cc1cccc(C)c1C(=O)Nc1cccc([S+](=O)([O-])N(C)C)c1	8 min
OC[C@H]1O[C@H](O[C@H]2O[C@H](CO)[C@@H](O)[C@H](O)[C@H]2O)[C@H](O)[C@@H](O)[C@@H]1O	> 30 min
COc1ccc(-c2cc(C)nc3c(-c4ccc(OC)c(OC)c4)c(C)nn23)cc1	> 30 min
